Results: patent US20160002297A1, “THERAPEUTIC AGENTS” (NATIONAL UNIVERSITY OF SINGAPORE, priority 2013, published 2016)
Positions of bridges follow the written chain, without caps; N, C: chain ends. Residues, ends and D or L forms follow the SMILES beside them.

Tested on: B16F10 melanoma
Assay: Mouse tumorigenesis: subcutaneous B16F10 melanoma, intravenous treatment from day 0
Type: in vivo
Procedure: FIG. 4 Recombinant ISM and ISM derived cRKD peptide inhibit B16F10 tumour growth in vivo. A. Tumour growth curve in mice. X-axis represents the days after 5×10^5 tumour cell inoculation. Groups consisted of control mice receiving no treatment, recombinant ISM, cRKD peptide and its control-cyclic RAA peptide, given in six doses of 250 μg/mouse through tail vein injection on days 0, 2, 4, 6, 8, and 10 (5 mice in each group, each mice with one tumour). **: p<0.01,*: p<0.05, n=5. B. Tumour weight at the end of the experiment (14 days after tumour cell inoculation). C. Recombinant ISM and cRKD peptide inhibits B16F10 tumour growth. […] Paraffin sections of tumors from mice groups treated by control, ISM, cRAA and cRKD peptides were probed for microvessel density, tumor cell proliferation and apoptosis through immunofluoresence staining using anti-CD31 (A), anti-PCNA (B) and TUNEL staining (C) respectively. Representative photos are shown. (D) Quantification of microvessel density. Microvessel density is the number of microvessels per microscopic field. (E) Quantification of cell proliferation in tumor sample. Cell proliferation is presented as the percentage of PCNA positive cells out of the total number of cells (DAPI positive cells) in the microscopic field. (F) Quantification of apoptosis in tumor. Apoptosis is quantified as the percentage of TUNEL positive cells out of the total number of cells (DAPI positive cells) in the microscopic field. Plots represent the mean of 3 fields per section, 3 sections per tumor and 2 tumors per group (±SEM). ** P≦0.01, * P≦0.05; Adult 8-week-old female C57BL/6J mice were used in this study. Animal care and experimentation was carried out under the institutional guidelines issued by the local institutional animal care and use committee (IACUC; protocol 066/12). 5×10^5 B16F10 cells in 0.1 ml PBS were injected subcutaneously into the dorsal left flank of the mouse. Twenty mice were assigned into 4 different groups consisted of control mice receiving no treatment, recombinant ISM, cyclic RKD peptide and its peptide control-cyclic RAA peptide, given in six doses of 250 μg through tail vein injection on days 0, 2, 4, 6, 8, and 10 (5 mice in each group, each mice with one tumor). Health status of the mice was monitored over two weeks and visible tumor size were measured daily by calipers after 8 days until the end point (day 14). Tumor volume was calculated using the following formula: 0.52×length×(width)^2 mm^3, where the largest dimension of the tumor is considered as the length and the width is the perpendicular dimension. On day 14, mice were sacrificed, and their dorsal flank was opened and photographed to exam the vascularization. Then tumors were excised and weighed followed by either fixing in 4% paraformaldehyde for sectioning or snap-freezing in liquid nitrogen for further analysis. Paraffin-embedded tissue sections of 5 μm were deparaffinized by heating at 60° C. for 7 minutes before deparaffinizing in histoclear followed by the rehydration in graded series of alcohol (100%, 90%, 80%, and 70% ethanol in ddH2O) and finally in PBS for 5 minutes. Antigen retrieval was done in a bench-top 2100-Retriever according to the protocol of the manufacturer (Electron Microscopy Sciences, Hatfield, Pa.). The sections were blocked with 3% bovine serum albumin (BSA) in a humidified chamber for 1 hour at room temperature followed by overnight incubation with the anti-CD31 (Santa Cruz Biotechnology, Santa Cruz, Calif.), anti-PCNA antibody (Santa Cruz Biotechnology), anti-GRP78 antibody (Santa Cruz Biotechnology), or anti-His tag antibody (Santa Cruz Biotechnology) at 4° C. The following day, unbound antibody was washed with 1×PBS containing 0.1% Tween-20 (1×PBST) and incubated with the corresponding Alexafluor 568 secondary antibodies (Life Technologies) for 1.5 hours at 37° C. Sections were rinsed again and incubated for 10 minutes with DAPI at 1 μg/mL to visualize the DNA in the cell nucleus. […]

N=C(N)NCCC[C@@H]1NC(=O)[C@@H](N)CSSC[C@@H](C(=O)O)NC(=O)[C@H](CC(=O)O)NC(=O)[C@H](CCCCN)NC1=O [cRKD, Cyclic CRKDC peptide] (H-CRKDC-OH; disulfide 1-5; N-terminus and C-terminus assumed)
tumor growth (250 μg/mouse intravenous every 2 days, days 0-10, subcutaneous B16F10): significantly suppressed tumor growth | vascularization (blood vessels supplying the tumor) (250 μg/mouse intravenous, day 14): obviously reduced | tumor angiogenesis, tumor cell proliferation and tumor cell apoptosis (immunofluorescence of tumor sections): suppress tumor angiogenesis, tumor cell proliferation and induce tumor cell apoptosis | suppression of subcutaneous mouse melanoma growth (intravenous injection): 75% | increase of apoptosis in the tumor tissue (TUNEL) (quantitation of tumor sections): more than 3 fold | suppression of tumor angiogenesis (tumor vessel density) (quantitation of tumor sections): more than 3 fold | suppression of tumor cell proliferation (PCNA) (quantitation of tumor sections): more than 2 fold | apoptosis of tumor cells and tumor ECs (CD31/TUNEL double staining) (tumor sections, compared to controls): both tumor cells as well as tumor ECs became apoptotic | tumor vessel density (anti-CD31 immunofluorescence) (tumor tissue sections): obvious reduction of tumor vessel density
